Tests used:
[1] = system: differentiated THP-1 cells; test: WST-1 cell viability, differentiated THP-1 cells; format: cell-based; details: for cell death: human
Description: To measure cytotoxicity of 3,6,7-trimethyllumazine at different doses, 2-(4-Iodophenyl)-3-(4-nitrophenyl)-5-(2,4-disulfophenyl)-2H-tetrazolium, monosodium salt (WST-1) (Roche, 11644807001, Lot #45255800) was used. WST-1 is a cell proliferation reagent for measurement of cellular proliferation, viability, and cytotoxicity using a colorimetric assay (Gosert (2011); Peskin (2000)).
After incubation, a portion of the culture media was taken and stored for MMP-9 secretion testing using ELISA. The remaining media in the plates was then removed and 100 μl of WST-1 in RPMI-1640 media (1:10 dilution) was added to each cell well and incubated at 37° C. for a further 4 hours. The plates were then read using a plate reader at wavelength of 450 nm. Cytotoxicity was calculated as follows:
[WST-1 score for each sample/WST-1 score for the control]×100
A WST-1 score below 80% will be considered cytotoxic.

active MMP-9 = test: Gelatin gel zymography, active MMP-9 band; format: biochemical; details: active MMP-9 (~37 kDa band); densitometry vs no inhibitor; n=5
Description: Novex™ 10% Zymogram Plus (Gelatin) Protein Gels (15 wells) were purchased from Thermo Fisher Scientific Inc. (Auckland, New Zealand). All chemicals required for the zymogram analysis were also purchased from Thermo Fisher, these include Novex™ Sharp Pre-stained Protein Standard, Novex Tris-Glycine SDS sample buffer, Novex Tris-Glycine SDS running buffer, Novex Zymogram renaturing buffer and Novex Zymogram developing buffer. […] Gelatin gel zymography was performed as an independent technique to confirm the inhibition of MMP-9 from 3,6,7-trimethyllumazine. This technique uses a non-reducing SDS-PAGE (sodium dodecyl sulfate polyacrylamide gel electrophoresis) gel embedded with gelatin. Proteins are migrated and separated during electrophoresis. The SDS is removed after electrophoresis and the gel is then incubated with essential cofactors required for enzymatic activity. The embedded gelatin can be digested by MMP-9, resulting in clear bands on a dark blue background after staining with Coomassie blue dyes. The gelatinase activity is represented by band densitometry, which can be assessed with image analysis software. […]
After incubation, the gelatin gel was rinsed with water for three times (5 min each) under gentle agitation. […] MMP-9 activities were analysed using densitometry on ImageJ Version 1.52a. […]

recombinant MMP-9 enzyme = biological target: T1, recombinant MMP-9 enzyme (Homo sapiens, UniProt P14780); test: MMP-9 inhibitor screening assay (fluorometric); format: biochemical; details: 40 μg/ml; no significant difference to NNGH control
T1 construct: purchased Abcam ab139449
Description: The MMP-9 inhibitor screening assay (fluorometric) kits were purchased from Abcam (Melbourne, Australia). The fluorometric kit contains the recombinant MMP-9 enzyme, MMP inhibitor NNGH (N-isobutyl-N-[4-methoxyphenylsulfonyl]glycyl hydroxamic acid), MMP fluorogenic substrate solubilised in DMSO, the fluorometric assay buffer and 96-well clear microplate.
Inhibitory activity on MMP-9 was assessed using the commercial MMP-9 inhibitor screening assay kit. MMP-9 activity was expressed as a change in fluorescence intensity measured using SpectraMax iD3 multi-mode microplate reader (Molecular Devices, San Jose, USA).
The assay employs a FRET-tagged (fluorescence resonance energy transfer) substrate, which can be hydrolysed by MMP-9 at a specific site (Abcam, 2018). The cleavage of the FRET substrate releases the quenched fluorescent Mca (7-methoxycoumarin-4-yl)-acetyl group (Abcam, 2018). The kit employs a quenched fluorogenic substrate Mca-Pro-Leu-Gly-Leu-Dpa-Ala-Arg-NH2, where the Mca fluorescence is quenched by Dpa until cleavage by MMPs. The amount of fluorescent product yielded by MMP-9 can be detected fluorometrically and it is proportional to the enzyme activity. Fluorescence were measured at ex320 nm-em395 nm to minimise fluorescence interference from 3,6,7-trimethyllumazine at ex330 nm-em470 nm. […]

T1 sequence (P14780 94-707): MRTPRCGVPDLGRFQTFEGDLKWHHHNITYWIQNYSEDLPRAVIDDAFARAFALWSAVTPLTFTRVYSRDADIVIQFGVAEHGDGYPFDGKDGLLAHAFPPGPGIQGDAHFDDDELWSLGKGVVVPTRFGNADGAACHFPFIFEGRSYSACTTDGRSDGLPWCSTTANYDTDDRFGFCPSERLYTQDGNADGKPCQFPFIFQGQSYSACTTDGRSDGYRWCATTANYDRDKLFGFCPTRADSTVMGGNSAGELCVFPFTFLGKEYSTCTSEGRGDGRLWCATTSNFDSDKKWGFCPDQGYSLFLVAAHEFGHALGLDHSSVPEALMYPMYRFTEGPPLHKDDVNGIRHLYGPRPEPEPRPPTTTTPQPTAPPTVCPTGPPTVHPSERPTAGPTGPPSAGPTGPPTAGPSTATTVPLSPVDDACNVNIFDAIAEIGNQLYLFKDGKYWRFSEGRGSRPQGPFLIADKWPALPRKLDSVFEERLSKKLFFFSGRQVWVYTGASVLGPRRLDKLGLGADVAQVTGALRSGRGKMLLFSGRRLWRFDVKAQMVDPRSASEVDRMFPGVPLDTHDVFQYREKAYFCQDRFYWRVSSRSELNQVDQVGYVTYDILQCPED

SMILES: Cc1nc2[nH]c(=O)n(C)c(=O)c2nc1C [3,6,7-trimethyllumazine]
- WST-1 score (cell viability) ([1]; 40 μg/mL, below 80% considered cytotoxic): 79.8%
- cell death ([1]; 30 μg/mL): 13%
- cell death ([1]; 40 μg/mL): 20%
- percentage inhibition of gelatinase activity (active MMP-9): 31%
- inhibition of MMP-9 activity (recombinant MMP-9 enzyme): almost completely inhibited
